Patent US12171229B2, “Heteroaryl-triazole and heteroaryl-tetrazole compounds as pesticides” (BAYER AKTIENGESELLSCHAFT, priority 2018, dated 2024)

Tests used:
Type in all cases: in vivo
Myzus persicae [1] = assay: Myzus persicae oral test; details: 120 h, 4 ppm, after 5 days
Method: Solvent: 100 parts by weight acetone
To produce a suitable preparation of active compound, 1 part by weight of active compound is mixed with the stated amount of solvent, and the concentrate is diluted with water to the desired concentration.
50 μl compound solution is filled in microtiter plates and 150 μl IPL41 insect medium (33%+15% sugar) is added to obtain a total volume of 200 μl per well. Afterwards the plates are sealed with parafilm through which a mixed population of the green peach aphid (Myzus persicae) can suck on the compound preparation.
(§1) After 5 days mortality in % is determined. 100% means all aphids have been killed and 0% means none of the aphids have been killed.

Diabrotica balteata = Diabrotica balteata spray test; details: Diabrotica balteata, in Triticum aestivum, 168 h, after 7 days, larvae on wheat seeds, read-out: efficacy (seedlings grown up); for pest or weed control at 80 µg/disc, 250 g/ha: 80 μg/well (=250 g/ha); for pest or weed control at 160 µg/disc, 500 g/ha: 160 μg/well (=500 g/ha)
Outline: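 Germinated wheat seeds (5 per well, 1 day on agar) sprayed with compound diluted in water containing 1000 ppm emulsifier, then infested with 10–20 D. balteata larvae. Efficacy scored after 7 days: 100% = seedlings like untreated uninfested control, 0% = no seedlings grown.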

Spodoptera frugiperda = Spodoptera frugiperda spray test; details: 168 h, after 7 days, larvae on maize leaf sections
Outline: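 Maize leaf sections were sprayed with compound formulated in solvent and diluted in water containing 1000 ppm emulsifier, then infested with fall armyworm larvae after drying. Percent mortality was scored after 7 days (100% = all caterpillars dead, 0% = none).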

Ctenocephalides felis [2] = assay: Ctenocephalides felis oral test; details: 48 h, 100 ppm in cattle blood, after 2 days, adult unfed cat fleas
Outline: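 About 20 unfed adult cat fleas feed through parafilm on cattle blood dosed with compound from a DMSO stock. Blood chamber at 37° C, fleas at room temperature. Percent mortality scored after 2 days.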

[3] = tested on: Aedes aegypti strain MONHEIM; assay: Aedes aegypti test (AEDSAE surface treatment & contact assay); details: 24 hours after contact, read-out: efficacy (mortality); for mortality at 20 mg/m2: surface concentration 20 mg/m^2, exposure 30 minutes
Method: Aedes Aegypti Test (AEDSAE Surface Treatment & Contact Assay)
(§2) Solvent: Aceton+2000 ppm rapeseed oil methyl ester (RME)
(§3) In order to produce a sufficient, active ingredient containing solution it is necessary to solve the test compound in the solvent-mix (acetone at 2 mg/ml/RME 2000 ppm). This solution is pipetted onto a glazed tile and after evaporation of the acetone, adult mosquitoes of the species Aedes aegypti strain MONHEIM are placed onto the dried surface. The exposure time is 30 minutes.
(§4) Mortality in percent (%) is determined 24 hours after contact of the insects to the treated surface. 100% mortality means that all tested insects are dead, whereas 0% means that no insect died.

Boophilus microplus = Boophilus microplus injection test; details: Rhipicephalus microplus, 168 h; 20 μg/animal injected into the abdomen; adult engorged female ticks; egg deposition after 7 days; read-out: efficacy (infertile eggs)
Outline: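 Five engorged adult female ticks received a 1 μl abdominal injection of compound in DMSO. They were then held in a climate chamber, with egg deposition checked after 7 days. Unclear eggs were kept until hatching at about 42 days, and efficacy was scored as the percentage of infertile eggs.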

[4] = tested on: Culex quinquefasciatus strain P00; assay: Culex quinquefasciatus test (CULXFA surface treatment & contact assay); details: surface concentration 20 mg/m^2, exposure 30 minutes, 24 hours after contact, read-out: efficacy (mortality)
Method: Culex Quinquefasciatus Test (CULXFA Surface Treatment & Contact Assay)
as §2
as §3, with “Culex quinquefasciatus” for “Aedes aegypti”, “P00” for “MONHEIM”
as §4

[5] = tested on: Anopheles funestus strain FUMOZ-R; assay: Anopheles funestus test (ANPHFU surface treatment & contact assay); details: 24 hours after contact, read-out: efficacy (mortality); for mortality at 20 mg/m2: surface concentration 20 mg/m^2, exposure 30 minutes
Method: Anopheles funestus Test (ANPHFU Surface Treatment & Contact Assay)
as §2
as §3, with “Anopheles funestus” for “Aedes aegypti”, “FUMOZ-R (Hunt et al., Med. Vet. Entomol. 2005 September; 19(3): 271-275)” for “MONHEIM”
as §4

Nezara viridula = Nezara viridula spray test; details: 96 h, after 4 days, larvae on barley plants
Outline: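 Barley plants infested with Nezara viridula larvae were sprayed with compound diluted in water containing 1000 ppm emulsifier. Percent mortality was scored 4 days later, where 100% means all bugs killed and 0% none.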

Myzus persicae [6] = assay: Myzus persicae spray test; details: foliar, 120 h, after 5 days, Chinese cabbage leaf disks
Method: Myzus persicae—Spray Test
To produce a suitable preparation of active compound, 1 part by weight of active compound is mixed with the stated amount of solvents and is diluted with water, containing an emulsifier concentration of 1000 ppm, to the desired concentration. Further test concentrations are prepared by dilution with emulsifier containing water.
Chinese cabbage (Brassica pekinensis) leaf disks infected with all instars of the green peach aphid (Myzus persicae), are sprayed with a preparation of the active ingredient of the desired concentration.
as §1

Ctenocephalides felis [7] = assay: Ctenocephalides felis in-vitro contact test, adult cat flea; details: 5 μg/cm^2 (=500 g/ha), after 48 hours, adult cat fleas, read-out: efficacy (fleas dead or moribund)
Method: Ctenocephalides Felis—In-Vitro Contact Tests Adult Cat Flea 9 mg compound is solved in 1 ml acetone and diluted with acetone to the desired concentration. 250 μl of the test solution is filled in 25 ml glass test tubes and homogeneously distributed on the inner walls by rotation and tilting on a shaking device (2 h at 30 rpm). With a compound concentration of 900 ppm, an inner surface of 44.7 cm^2 and a homogeneous distribution, a dose of 5 μg/cm^2 is achieved. After the solvent has evaporated, each test tube is filled with 5-10 adult cat fleas (Ctenocephalides felis), closed with a perforated lid and incubated in a lying position at room temperature and relative humidity. After 48 hours efficacy is determined. The fleas are patted on the ground of the tubes and are incubated on a heating plate at 45-50° C. for at most 5 minutes. Immotile or uncoordinated moving fleas, which are not able to escape the heat by climbing upwards, are marked as dead or moribund. […] An efficacy of 100% means all fleas are dead or moribund; 0% means no fleas are dead or moribund.

[8] = surface concentration 4 mg/m^2, exposure 30 minutes

SMILES | mortality at 4 ppm (Myzus persicae [1]) | pest or weed control at 80 µg/disc, 250 g/ha (Diabrotica balteata) | pest or weed control at 160 µg/disc, 500 g/ha (Diabrotica balteata) | mortality at 100 g/ha (Spodoptera frugiperda) | mortality at 500 g/ha (Spodoptera frugiperda) | mortality at 100 ppm (Ctenocephalides felis [2]) | mortality at 20 mg/m2 [3] | pest or weed control at 0.02 mg (Boophilus microplus) | mortality at 20 mg/m2 [4] | mortality at 20 mg/m2 [5] | mortality at 500 g/ha (Nezara viridula) | mortality at 100 g/ha (Myzus persicae [6]) | pest or weed control at 5 µg/cm2 (Ctenocephalides felis [7]) | mortality at 4 mg/m2 [3, 8] | mortality at 4 mg/m2 [5, 8] | mortality at 500 g/ha (Myzus persicae [6]) | mortality at 100 g/ha (Nezara viridula; 100 g/ha)
C[C@H](NC(=O)c1cc(Cl)cc(C(F)(F)F)c1)c1ncnn1-c1ccc(N)cn1 [Example I-030, N-{(1S)-1-[1-(5-aminopyridin-2-yl)-1H-1,2,4-triazol-5-yl]ethyl}-3-chloro-5-(trifluoromethyl)benzamide] | 100% | 100% | 80% | 83% | 100% | 100% | 90 to 100% | 100% | 90 to 100% | 90 to 100% | 100% | 90% |  |  |  |  | 
C[C@H](NC(=O)c1cc(Cl)cc(C(F)(F)F)c1)c1ncnn1C1CCS(=O)(=O)C1 (single isomer, unassigned) [Example I-024] | 100% | 100% | 100% |  |  | 100% |  | 100% | 90 to 100% | 90 to 100% |  | 90% |  |  |  |  | 
C[C@H](NC(=O)c1cc(Cl)cc(C(F)(F)F)c1)c1ncnn1-c1ccc(C(=O)NC2CC2)cn1 [Example I-061] | 100% | 100% | 100% | 100% | 100% | 100% |  | 100% |  |  | 100% |  | 100% |  |  |  | 
CNC(=O)c1ccc(-n2ncnc2[C@H](C)NC(=O)c2cc(Cl)cc(C(F)(F)F)c2)nc1 [Example I-038, 6-(5-{(1S)-1-[3-chloro-5-(trifluoromethyl)benzamido]ethyl}-1H-1,2,4-triazol-1-yl)-N-methylnicotinamide] | 100% | 100% | 100% | 100% | 100% |  | 90 to 100% |  | 90 to 100% | 90 to 100% |  |  |  | 90 to 100% | 85 to 100% | 90% | 
C[C@H](NC(=O)c1cc(Cl)cc(OC(F)(F)F)c1)c1ncnn1-c1ccc([N+](=O)[O-])cn1 [Example I-089] | 90% | 100% | 100% | 100% | 100% | 100% |  |  |  |  | 100% | 90% | 100% |  |  | 90% | 90%
